In patent publication US8507676B2, “Heterocyclic oxime compounds” (Novartis AG, priority 2009, dated 2013):

How the values were obtained:
[1] = target: c-MET receptor tyrosine kinase, GST-c-MET(969-1390) (Homo sapiens (Human), UniProt P08581); assay: EPK c-MET profiling assay (LanthaScreen TR-FRET kinase assay); assay type: biochemical; details: recombinant GST-c-MET(969-1390), 2 μM ATP, 60 minutes at room temperature; read-out: c-Met biochem (IC50 nM)
Procedure: A number of compounds of the present invention were assayed in an antibody based kinase phosphorylation assay as follows.
EPK c-MET Profiling Assay:
The EPK kinase assay for c-MET receptor tyrosine kinase was developed, using the purified recombinant GST-fusion protein, containing the cytoplasmic domain of the enzyme.
The kinase assay is based on the LanthaScreen™ technology. LanthaScreen™ is the detection of Time-Resolved Fluorescence Resonance Energy Transfer (TR-FRET) using lanthanide chelates to measure interactions between various binding partners. In a TR-FRET kinase assay, a long-lifetime lanthanide donor species is conjugated to an antibody that specifically binds to a phosphorylated product of a kinase reaction that is labeled with a suitable acceptor fluorophore. This antibody-mediated interaction brings the lanthanide donor and the acceptor into proximity such that resonance energy transfer can take place, resulting in a detectable increase in the FRET signal.
The kinase reactions were performed in 384 well microtiter plates in a total reaction volume of 10.05 μL. […]
Subsequently 5 μL of detection mix (50 mM Tris/HCl, 2 mM DTT, 0.05% Tween20, 20 μM sodium orthovanadate, 1% BSA, 1 nM Tb-PY20 antibody) were added to the stopped reactions. After 45 minutes incubation in dark at room temperature, the plates were measured in a Perkinelmer Envision fluorescence reader.

[2] = stability of the isolated compound at nucleophiles such as methanol; assay type: physicochemical; details: degrades into starting material 75-R
Procedure: Previously prepared (E)-1-(3-(1-(5,7-difluoroquinolin-6-yl)ethyl)-[1,2,4]triazolo[4,3-b]pyridazin-6-yl)ethanone oxime (75-R, 100 mg, 0.271 mmol) in anhydrous THF (8 mL) was added diphosgene (0.1 mL, 0.829 mmol) dropwise at 0° C., and the reaction mixture was heated at 50° C. for 4 hr. Oil bath was removed, and the reaction mixture was cooled in an ice-water bath. An ammonia solution (0.5 N in dioxane, 8.0 mL, 4.0 mmol) was added dropwise. The temperature was allowed to rise to rt naturally, and the reaction mixture was stirred at rt overnight. Solvent was evaporated, and the residue was purified by column chromatography (8% methanol in ethyl acetate as eluent) to afford 64 mg (45.8% yield) of title compound as white solid, which was unstable at nucleophiles such as methanol, and was pro to degrade into starting material 75-R. ^1H-NMR (400 MHz, DMSO-d6) δ ppm 8.96 (d, 1H), 8.44 (d, 1H), 8.34 (d, 1H), 8.10 (d, 1H), 7.56-7.74 (m, 2H), 7.34 (s br, 2H), 5.27 (q, 1H), 2.02 (d, 3H), 2.03 (s, 3H). LCMS (method B): [MH]^+=412, tR=2.25 min.

c-MET receptor tyrosine kinase, GST-c-MET(969-1390), sequence (P08581 969-1390): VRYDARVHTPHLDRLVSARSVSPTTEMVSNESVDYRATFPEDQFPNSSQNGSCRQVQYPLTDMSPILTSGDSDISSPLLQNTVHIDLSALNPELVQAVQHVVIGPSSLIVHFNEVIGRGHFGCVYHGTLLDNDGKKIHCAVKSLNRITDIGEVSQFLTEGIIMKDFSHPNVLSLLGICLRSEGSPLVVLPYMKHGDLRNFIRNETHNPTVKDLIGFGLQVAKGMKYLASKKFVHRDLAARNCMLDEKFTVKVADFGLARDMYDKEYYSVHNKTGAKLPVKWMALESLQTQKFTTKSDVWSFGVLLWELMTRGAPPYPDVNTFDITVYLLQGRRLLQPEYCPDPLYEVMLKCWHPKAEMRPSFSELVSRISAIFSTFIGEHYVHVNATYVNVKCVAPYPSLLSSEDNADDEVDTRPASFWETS

Row | IC50 [1] | stability at nucleophiles such as methanol [2] | Compound
1 | 1.5 nM | – | C/C(=N\OCCO)c1ccc2nnc(C(F)(F)c3ccc4ncccc4c3)n2n1 [Example 50, (E)-1-(3-(Difluoro(quinolin-6-yl)methyl)-[1,2,4]triazolo[4,3-b]pyridazin-6-yl)ethanone O-2-hydroxyethyl oxime]
2 | – | unstable | C/C(=N\OC(N)=O)c1ccc2nnc([C@H](C)c3c(F)cc4ncccc4c3F)n2n1 [Example 77-R, (R,E)-1-(3-(1-(5,7-difluoroquinolin-6-yl)ethyl)-[1,2,4]triazolo[4,3-b]pyridazin-6-yl)ethanone O-carbamoyl oxime]
